The test system of test [1] is Akt (threonine 308) phosphorylation in AN3CA tumor. Briefly: Akt phosphorylation inhibition assay in xenograft. The class given is in vivo, female nude mouse. To be noted: Mus musculus, AN3-CA, oral, 6 hr after dosing. The procedure: (§1) A tumor section was prepared from a human endometrial cancer cell strain AN3CA tumor mass formed in a female nude mouse as subcutaneously transplanted tumor and a xenograft model was prepared by subcutaneously transplanting the tumor to a female nude mouse. The test compound at a predetermined concentration was orally administered. After a predetermined time, the anesthetized mouse was exsanguinated to death, and a tumor mass was isolated. The tumor mass was crushed using a lysis buffer containing inhibitors of proteases and dephosphorylating enzymes (Cell Signaling Technology, Inc.) and the supernatant was separated by centrifugation to obtain a tumor extract. The protein content of the tumor extract was measured using DC Protein Assay Kit (Bio-Rad Laboratories, Inc.) and phosphorylation conditions of Akt (threonine 308) and S6 (serine 235 and 236) were analyzed by a usual technique of western blotting using tumor extracts containing the same amount of protein. The primary antibody and the secondary antibody used for detecting each molecule were rabbit anti-phospho-Akt(T308) antibody and HRP-labeled goat anti-rabbit IgG antibody or mouse anti-phospho-S6(S235/236) antibody and HRP-labeled sheep anti-mouse IgG antibody.
(§2) The signal intensity detected using an image analyzer Typhoon 9400 (GE Healthcare) was quantified, and the phosphorylation inhibition rate (%) was calculated by the following formula. Phosphorylation inhibitory activity (%) of Akt and S6 after treatment with test compound=100−100×(B/A) A: Signal intensity derived from phosphorylated protein in tumor mass isolated from mouse untreated with test compound B: Signal intensity derived from phosphorylated protein in tumor mass isolated from mouse treated with test compound

The target in another test is PI3Kα (Homo sapiens, UniProt P42336). Briefly: PI3K kinase activity inhibition assay. Particulars: Kinase-Glo Plus ATP detection, read-out: IC50 against PI3K. The class given is biochemical. The method, boiled down:
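PI3Kα (50 nM solution) was reacted with 30 μM ATP and 45 μM PIP2 solutions, each in HEPES pH 7.4 with MgCl2 and DTT, for 2 h at room temperature. Remaining ATP was measured by Kinase-Glo Plus luminescence, and inhibition was derived from ATP consumed. IC50 was taken from curve fitting of the serial dilutions.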
Background: In Kinase-Glo more light means more ATP remaining.

The subject of test [2] is human endometrial cancer cell strain AN3CA. Briefly: Cell growth inhibition test (MTT), AN3CA. The class given is cell-based. To be noted: AN3-CA, 72 h, 3 days culture, read-out: concentration exhibiting anti-cell effect (GI50). The gist of the method: (§3)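 Seed 5000/1000/5000 cells per well (AN3CA/IGROV1/HT29); add compound next day; culture 3 d, 37° C, 5% CO2; MTT 4 h, DMSO, A540. T/C % vs pre-dose baseline; GI50 from bracketing concentrations.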

Test [3] concerns human ovary cancer cell strain IGROV1. Briefly: Cell growth inhibition test (MTT), IGROV1. It is filed as cell-based. Particulars: IGROV-1, 72 h, IGROV1, 3 days culture, read-out: concentration exhibiting anti-cell effect (GI50). The gist of the method: as §3
Test [4] deals with human colon cancer cell strain HT29. Briefly: Cell growth inhibition test (MTT), HT29. It is filed as cell-based. Particulars: HT-29, 72 h, HT29, 3 days culture, read-out: concentration exhibiting anti-cell effect (GI50). The gist of the method:
as §3

For test [5], the system named is S6 (serine 235 and 236) phosphorylation in AN3CA tumor. Briefly: S6 phosphorylation inhibition assay in xenograft. It is filed as in vivo, female nude mouse. To be noted: Mus musculus, AN3-CA, oral, 6 hr after dosing. The procedure: as §1, §2

Sequence of PI3Kα (P42336 whole entry, species assumed): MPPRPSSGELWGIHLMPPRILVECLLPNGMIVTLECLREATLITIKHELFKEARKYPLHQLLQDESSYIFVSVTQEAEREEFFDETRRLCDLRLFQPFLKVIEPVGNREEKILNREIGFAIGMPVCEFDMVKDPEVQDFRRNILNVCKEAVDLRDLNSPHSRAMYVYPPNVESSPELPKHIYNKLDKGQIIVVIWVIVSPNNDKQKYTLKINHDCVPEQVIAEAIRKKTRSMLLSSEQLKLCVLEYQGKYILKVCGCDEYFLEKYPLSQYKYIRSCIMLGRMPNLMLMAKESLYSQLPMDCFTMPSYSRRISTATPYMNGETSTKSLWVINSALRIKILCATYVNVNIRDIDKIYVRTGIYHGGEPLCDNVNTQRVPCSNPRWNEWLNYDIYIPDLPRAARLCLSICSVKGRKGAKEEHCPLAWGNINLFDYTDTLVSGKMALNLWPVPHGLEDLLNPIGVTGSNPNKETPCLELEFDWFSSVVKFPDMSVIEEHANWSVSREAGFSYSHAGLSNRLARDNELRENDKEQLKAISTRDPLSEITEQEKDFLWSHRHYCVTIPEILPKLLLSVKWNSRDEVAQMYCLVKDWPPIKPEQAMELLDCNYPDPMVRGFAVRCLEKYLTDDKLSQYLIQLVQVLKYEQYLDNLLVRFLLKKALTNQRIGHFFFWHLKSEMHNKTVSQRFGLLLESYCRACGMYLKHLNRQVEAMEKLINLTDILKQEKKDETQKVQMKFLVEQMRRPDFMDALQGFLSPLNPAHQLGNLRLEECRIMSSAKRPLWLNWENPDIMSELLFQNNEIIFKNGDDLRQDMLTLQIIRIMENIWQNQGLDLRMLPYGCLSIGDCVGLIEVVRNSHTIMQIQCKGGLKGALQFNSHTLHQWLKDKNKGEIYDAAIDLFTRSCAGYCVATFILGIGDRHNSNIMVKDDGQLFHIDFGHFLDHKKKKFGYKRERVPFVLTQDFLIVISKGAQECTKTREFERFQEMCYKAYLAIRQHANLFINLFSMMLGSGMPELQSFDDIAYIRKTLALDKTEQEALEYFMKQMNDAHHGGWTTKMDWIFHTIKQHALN
Sequence of PI3Kα (P27986 whole entry partner, species assumed): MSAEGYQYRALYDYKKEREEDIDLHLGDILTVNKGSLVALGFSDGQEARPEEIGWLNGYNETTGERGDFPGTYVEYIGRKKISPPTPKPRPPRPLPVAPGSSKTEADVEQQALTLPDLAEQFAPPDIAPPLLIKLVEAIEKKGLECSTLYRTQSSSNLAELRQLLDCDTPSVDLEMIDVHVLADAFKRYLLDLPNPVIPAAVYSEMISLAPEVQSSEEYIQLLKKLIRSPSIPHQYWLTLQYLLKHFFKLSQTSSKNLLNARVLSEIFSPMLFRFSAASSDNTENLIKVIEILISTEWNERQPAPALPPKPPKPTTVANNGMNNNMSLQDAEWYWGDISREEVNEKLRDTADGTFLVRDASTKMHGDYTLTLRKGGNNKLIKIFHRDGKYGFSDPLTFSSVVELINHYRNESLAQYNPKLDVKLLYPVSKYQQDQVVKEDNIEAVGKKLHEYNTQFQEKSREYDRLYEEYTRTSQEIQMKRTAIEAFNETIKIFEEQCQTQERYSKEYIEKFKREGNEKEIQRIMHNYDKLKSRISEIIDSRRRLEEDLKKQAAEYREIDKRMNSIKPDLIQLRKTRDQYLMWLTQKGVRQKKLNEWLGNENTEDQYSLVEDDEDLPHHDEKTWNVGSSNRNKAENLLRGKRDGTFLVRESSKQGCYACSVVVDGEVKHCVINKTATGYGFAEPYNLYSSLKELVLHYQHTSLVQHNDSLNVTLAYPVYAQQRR

As to `CC(C)Cn1c(N2CCN(C(=O)C[C@H](C)O)CC2)nc2c(N3CCOC[C@@H]3C)nc(-c3cnc(N)nc3)nc21` [Example 133, (2S)-4-(4-[2-(2-Aminopyrimidin-5-yl)-9-isobutyl-6-[(3S)-3-methylmorpholin-4-yl]-9H-purin-8-yl]piperazin-1-yl)-4-oxobutan-2-ol], the values for the inhibition at 10 mg/kg in test [1] and in test [5] were above 60% and above 90%, respectively. At PI3Kα, the IC50 was below 0.01 µM. For the same compound, the GI50 in test [2], in test [3] and in test [4] was at most 5 µM each time.

The inhibition is the drop in the measured response relative to a control, in per cent. Low values mean a response near the control, high ones a response far below the control. A word on the IC50: it is the concentration that gives 50% inhibition.

Values taken from patent US8309546B2, “Morpholinopurine derivatives” (Daiichi Sankyo Company, Limited, priority 2008, dated 2012).
